# From ChEMBL document CHEMBL1152144, “In situ blood-brain barrier permeability of a C-10 paclitaxel carbamate” (Bioorg Med Chem Lett, 2008)
# System: Brain
# Experiment: Blood-brain barrier permeability in B6C3 mouse brain assessed as increase in drug level at 0.1 uCi, iv relative to [14C]paclitaxel
# Type: ADME, organism-based
# Details: in vivo
row,fold change (FC),SMILES
1,6,CC(=O)O[C@@]12CO[C@@H]1C[C@H](O)[C@@]1(C)C(=O)[C@H](OC(=O)CCC(=O)O)C3=C(C)[C@@H](OC(=O)[C@H](O)[C@@H](NC(=O)c4ccccc4)c4ccccc4)C[C@@](O)([C@@H](OC(=O)c4ccccc4)[C@H]21)C3(C)C
2,3,CC(=O)O[C@@]12CO[C@@H]1C[C@H](O)[C@@]1(C)C(=O)[C@H](OC(=O)N[14CH2][14CH2]O)C3=C(C)[C@@H](OC(=O)[C@H](O)[C@@H](NC(=O)c4ccccc4)c4ccccc4)C[C@@](O)([C@@H](OC(=O)c4ccccc4)[C@H]21)C3(C)C
